Calls of active or inactive are those of the source.
Columns and labels:
Type in all cases: cell-based
Details in all cases: tested as the 125I-labelled form
[1] = system: T1, Type-1 angiotensin II receptor (Homo sapiens), P30556 [N111G]; experiment: Binding affinity to Leu143-Met243 region of human AT1 receptor N111G constitutively active mutant expressed in CHO cells after PNGase-F cleavage by photoaffinity labeling
T1 sequence (whole entry): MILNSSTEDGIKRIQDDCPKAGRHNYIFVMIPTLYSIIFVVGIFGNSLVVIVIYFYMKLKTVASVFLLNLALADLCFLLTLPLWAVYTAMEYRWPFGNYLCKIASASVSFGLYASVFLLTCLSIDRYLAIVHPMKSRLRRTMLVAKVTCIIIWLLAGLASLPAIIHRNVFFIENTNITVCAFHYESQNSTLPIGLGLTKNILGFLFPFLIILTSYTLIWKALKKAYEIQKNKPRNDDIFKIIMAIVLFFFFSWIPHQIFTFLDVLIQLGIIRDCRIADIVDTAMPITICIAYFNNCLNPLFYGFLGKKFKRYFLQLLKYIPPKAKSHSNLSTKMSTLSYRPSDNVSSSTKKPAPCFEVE

[2] = system: T1, Type-1 angiotensin II receptor (Homo sapiens), P30556 [N111G]; experiment: Binding affinity to human AT1 receptor N111G constitutively active mutant expressed in CHO cells by photoaffinity labeling relative to untreated control
[3] = system: T1, Type-1 angiotensin II receptor (Homo sapiens), P30556 [N111G]; experiment: Binding affinity to Glu91-Met134 and Ala244-Met284 regions of human AT1 receptor N111G constitutively active mutant expressed in CHO cells after CNBr cleavage by photoaffinity labeling
[4] = system: T1, Type-1 angiotensin II receptor (Homo sapiens), P30556 [N111G]; experiment: Binding affinity to Ile2-Met30 region of human AT1 receptor N111G constitutively active mutant expressed in CHO cells after PNGase-F cleavage by photoaffinity labeling
[5] = system: T1, Type-1 angiotensin II receptor (Homo sapiens), P30556 [N111G]; experiment: Binding affinity to Thr61-Lys102 and Ala21-Lys58 regions of human AT1 receptor N111G constitutively active mutant expressed in CHO cells after Endo-Lys-C cleavage by photoaffinity labeling

Measured: Activity

CC[C@H](C)[C@H](NC(=O)[C@H](Cc1ccc(I)cc1)NC(=O)[C@H](Cc1ccc(C(=O)c2ccccc2)cc1)NC(=O)[C@H](CCCNC(=N)N)NC(=O)CNC)C(=O)N[C@@H](Cc1cnc[nH]1)C(=O)N1CCC[C@H]1C(=O)N[C@@H](Cc1ccccc1)C(=O)O
active: [1] | [2]

CC[C@H](C)[C@H](NC(=O)[C@H](Cc1ccc(I)cc1)NC(=O)[C@@H](NC(=O)[C@H](Cc1ccc(C(=O)c2ccccc2)cc1)NC(=O)CNC)C(C)C)C(=O)N[C@@H](Cc1cnc[nH]1)C(=O)N1CCC[C@H]1C(=O)N[C@@H](Cc1ccccc1)C(=O)O
active: [1] | [2] | [3]

CNCC(=O)N[C@@H](CCCNC(=N)N)C(=O)N[C@H](C(=O)N[C@@H](Cc1ccc(I)cc1)C(=O)N[C@@H](Cc1ccc(C(=O)c2ccccc2)cc1)C(=O)N[C@@H](Cc1cnc[nH]1)C(=O)N1CCC[C@H]1C(=O)N[C@@H](Cc1ccccc1)C(=O)O)C(C)C
not listed: [1]
active: all other assays above

CC[C@H](C)[C@H](NC(=O)[C@H](Cc1ccc(I)cc1)NC(=O)[C@H](Cc1ccc(C2(C(F)(F)F)N=N2)cc1)NC(=O)[C@H](CCCNC(=N)N)NC(=O)CNC)C(=O)N[C@@H](Cc1cnc[nH]1)C(=O)N1CCC[C@H]1C(=O)N[C@@H](Cc1ccccc1)C(=O)O
active: [1] | [2]

CNCC(=O)N[C@@H](CCCNC(=N)N)C(=O)N[C@H](C(=O)N[C@@H](Cc1ccc(I)cc1)C(=O)N[C@@H](Cc1ccc(C2(C(F)(F)F)N=N2)cc1)C(=O)N[C@@H](Cc1cnc[nH]1)C(=O)N1CCC[C@H]1C(=O)N[C@@H](Cc1ccccc1)C(=O)O)C(C)C
not listed: [1]
active: all other assays above

CC[C@H](C)[C@H](NC(=O)[C@H](Cc1ccc(I)cc1)NC(=O)[C@@H](NC(=O)[C@H](Cc1ccc(C2(C(F)(F)F)N=N2)cc1)NC(=O)CNC)C(C)C)C(=O)N[C@@H](Cc1cnc[nH]1)C(=O)N1CCC[C@H]1C(=O)N[C@@H](Cc1ccccc1)C(=O)O
active: [4] | [2] | [3]

CC[C@H](C)[C@H](NC(=O)[C@H](Cc1ccc(I)cc1)NC(=O)[C@@H](NC(=O)[C@H](CCCNC(=N)N)NC(=O)[C@@H](N)Cc1ccc(C(=O)c2ccccc2)cc1)C(C)C)C(=O)N[C@@H](Cc1cnc[nH]1)C(=O)N1CCC[C@H]1C(=O)N[C@@H](Cc1ccccc1)C(=O)O
not listed: [5]
active: all other assays above

— ChEMBL document CHEMBL1154979 (J Med Chem, 2010)
